Results on 21 compounds are retold here after ChEMBL document CHEMBL1124506, “Synthesis and antimicrobial properties of substituted beta-aminoxypropionyl penicillins and cephalosporins” (1989).

Format in all cases: functional
For one assay, the system named is Staphylococcus aureus. The assay can be described thus: Inhibition of gram positive (resistant) bacteria growth.
Assay [1] in a line: Inhibition of gram negative (resistant) growth.
Assay [2] is described as follows: Inhibition of gram negative bacteria growth.
Assay [3] can be described thus: Inhibition of gram positive bacteria growth.

SMILES strings stand for the structures. Converted amounts (≈) assume the structure as drawn.

The MIC is the least concentration at which growth counts as inhibited. A low value points to inhibition by little substance. For the compound `CC1(C)SC2C(NC(=O)CCON=C3CCCC3)C(=O)N2[C@H]1C(=O)[O-].[K+]` (some centres undefined), the MIC in the assay on Staphylococcus aureus was 25 µg/mL; in assay [1], above 200 µg/mL; in assay [2], 53 µg/mL; in assay [3], 0.06 µg/mL.

On to `CC(=O)OCC1=C(C(=O)[O-])N2C(=O)C(NC(=O)CCO/N=C(\C)c3ccc(Cl)cc3)C2SC1.[K+]` (centres undefined), for which the MIC against Staphylococcus aureus was 4 µg/mL; in assay [1], above 200 µg/mL; in assay [2], 151 µg/mL; in assay [3], 0.25 µg/mL.

`CCCC(CCC)=NOCCC(=O)NC1C(=O)N2C(C(=O)O)=C(C)CSC12` (centres undefined): the MIC with Staphylococcus aureus was 100 µg/mL (≈ 252 µM); in assay [1] it was above 200 µg/mL; in assay [2] it was above 200 µg/mL; in assay [3] it was 16.4 µg/mL (≈ 41.3 µM).

For `CC1(C)SC2C(NC(=O)CCON=C3CCCCC3)C(=O)N2[C@H]1C(=O)[O-].[K+]` (some centres undefined), the MIC in the assay on Staphylococcus aureus was 25 µg/mL; in assay [1], above 200 µg/mL; in assay [2], 107 µg/mL; in assay [3], 0.2 µg/mL.

`CC(=O)OCC1=C(C(=O)O)N2C(=O)C(NC(=O)CCON=C3c4ccccc4-c4ccccc43)C2SC1` (centres undefined): the minimal inhibitory concentration (MIC) against Staphylococcus aureus was 0.25 µg/mL (≈ 0.479 µM); in assay [1] it was above 100 µg/mL; in assay [2] it was 44 µg/mL (≈ 84.4 µM); in assay [3], 0.02 µg/mL (≈ 0.0383 µM).

For the compound `CC(=O)OCC1=C(C(=O)O)N2C(=O)C(NC(=O)CCON=C(C)C)C2SC1` (centres undefined), the MIC against Staphylococcus aureus is 6.2 µg/mL (≈ 15.5 µM); in assay [1] it was above 200 µg/mL; in assay [2], 174 µg/mL (≈ 436 µM); in assay [3], 1.7 µg/mL (≈ 4.26 µM).

Regarding `CC(=O)OCC1=C(C(=O)O)N2C(=O)C(NC(=O)Cc3ccccc3)C2SC1` (centres undefined), the MIC with Staphylococcus aureus was 12.6 µg/mL (≈ 32.3 µM); in assay [1], above 200 µg/mL; in assay [2], 29 µg/mL (≈ 74.3 µM); in assay [3] it was 1.06 µg/mL (≈ 2.72 µM).

For `CC(=O)OCC1=C(C(=O)O)N2C(=O)C(NC(=O)CCON=C3CCCCC3)C2SC1` (centres undefined), the MIC was 1.9 µg/mL (≈ 4.32 µM) with Staphylococcus aureus, above 200 µg/mL in assay [1], 174 µg/mL (≈ 396 µM) in assay [2] and 0.5 µg/mL (≈ 1.14 µM) in assay [3].

Take `CC(=O)OCC1=C(C(=O)O)N2C(=O)C(NC(=O)CCO/N=C\c3ccccc3)C2SC1` (centres undefined): the minimum inhibitory concentration (MIC) with Staphylococcus aureus is 4 µg/mL (≈ 8.94 µM); in assay [1], above 200 µg/mL; in assay [2], 71 µg/mL (≈ 159 µM); in assay [3], 0.22 µg/mL (≈ 0.492 µM).

For `CC1=C(C(=O)O)N2C(=O)C(NC(=O)Cc3ccccc3)C2SC1` (centres undefined), the MIC was 200 µg/mL (≈ 602 µM) with Staphylococcus aureus, above 200 µg/mL in assay [1], 123 µg/mL (≈ 370 µM) in assay [2] and 6.2 µg/mL (≈ 18.7 µM) in assay [3].

Regarding `CC1=C(C(=O)O)N2C(=O)C(NC(=O)CCO/N=C(\C)c3ccc(Cl)cc3)C2SC1` (centres undefined), the MIC in the assay on Staphylococcus aureus is 63 µg/mL (≈ 144 µM); in assay [1] it was above 200 µg/mL; in assay [2] it was above 200 µg/mL; in assay [3] it was 4.7 µg/mL (≈ 10.7 µM).

Regarding `CC1(C)SC2C(NC(=O)CCO/N=C/c3ccccc3)C(=O)N2[C@H]1C(=O)[O-].[K+]` (some centres undefined), the MIC is 50 µg/mL against Staphylococcus aureus, above 200 µg/mL in assay [1], 136 µg/mL in assay [2] and 0.1 µg/mL in assay [3].

For the compound `CC1=C(C(=O)O)N2C(=O)C(NC(=O)CCON=C3CCCCC3)C2SC1` (centres undefined), the MIC against Staphylococcus aureus is 79 µg/mL (≈ 207 µM); in assay [1], above 200 µg/mL; in assay [2], 131 µg/mL (≈ 343 µM); in assay [3], 7.3 µg/mL (≈ 19.1 µM).

As for `CC1=C(C(=O)O)N2C(=O)C(NC(=O)CCO/N=C\c3ccccc3)C2SC1` (centres undefined), the MIC against Staphylococcus aureus was 79 µg/mL (≈ 203 µM); in assay [1], above 200 µg/mL; in assay [2], above 200 µg/mL; in assay [3], 8.2 µg/mL (≈ 21.1 µM).

`CC1=C(C(=O)O)N2C(=O)C(NC(=O)CCON=C3CCCC3)C2SC1` (centres undefined): the MIC is 79 µg/mL (≈ 215 µM) against Staphylococcus aureus, above 200 µg/mL in assay [1], 131 µg/mL (≈ 357 µM) in assay [2] and 9.1 µg/mL (≈ 24.8 µM) in assay [3].

Consider `CCCC(CCC)=NOCCC(=O)NC1C(=O)N2C(C(=O)O)=C(COC(C)=O)CSC12` (centres undefined), for which the MIC in the assay with Staphylococcus aureus was 10 µg/mL (≈ 22 µM); in assay [1], above 200 µg/mL; in assay [2] it was 93 µg/mL (≈ 204 µM); in assay [3], 0.73 µg/mL (≈ 1.6 µM).

For `CC1(C)SC2C(NC(=O)CCON=C3c4ccccc4-c4ccccc43)C(=O)N2[C@H]1C(=O)[O-].[K+]` (some centres undefined), the MIC against Staphylococcus aureus is 8 µg/mL; in assay [1], above 200 µg/mL; in assay [2] it was 131 µg/mL; in assay [3] it was 0.06 µg/mL.

For the compound `CC1(C)S[C@@H]2[C@H](NC(=O)[C@H](N)c3ccccc3)C(=O)N2[C@H]1C(=O)O` [AMPICILLIN], the MIC in the assay on Staphylococcus aureus is 10 µg/mL (≈ 28.6 µM); in assay [1], above 200 µg/mL; in assay [2], 1 µg/mL (≈ 2.86 µM); in assay [3], 0.04 µg/mL (≈ 0.114 µM).

As for `CC1=C(C(=O)O)N2C(=O)[C@@H](NC(=O)[C@H](N)c3ccccc3)[C@H]2SC1` [CEPHALEXIN ANHYDROUS], the MIC is 20 µg/mL (≈ 57.6 µM) against Staphylococcus aureus, above 100 µg/mL in assay [1], 2 µg/mL (≈ 5.76 µM) in assay [2] and 0.4 µg/mL (≈ 1.15 µM) in assay [3].

Take `CC1(C)S[C@@H]2[C@H](NC(=O)Cc3ccccc3)C(=O)N2[C@H]1C(=O)O` [PENICILLIN G]: the MIC in the assay on Staphylococcus aureus was 79 µg/mL (≈ 236 µM); in assay [1], above 200 µg/mL; in assay [2], 71 µg/mL (≈ 212 µM); in assay [3], 0.05 µg/mL (≈ 0.15 µM).

With `[3H]C([3H])([3H])N1C(=O)CN=C(c2ccc(Cl)cc2)c2cc(Cl)ccc21` [[3H]-RO-54864], the MIC against Staphylococcus aureus is 7.3 µg/mL (≈ 22.4 µM); in assay [1], above 200 µg/mL; in assay [2], 71 µg/mL (≈ 218 µM); in assay [3], 0.59 µg/mL (≈ 1.81 µM).
